Molecular target: NLRP3 (Homo sapiens, UniProt Q96P20)
Test: THP-1 cells pyroptosis assay
Type: cell-based
Set-up: Seed THP-1 cells (25,000 cells/well) containing 1.0 μg/ml LPS; host or cells: THP-1 cells, LPS-primed, nigericin-stimulated
Conditions: 1.0 μg/ml LPS, nigericin 5 μM, resazurin readout
Description: It is well established that the activation of NLRP3 leads to cell pyroptosis and this feature plays an important part in the manifestation of clinical disease (Yan-gang Liu et al., Cell Death & Disease, 2017, 8(2), e2579; Alexander Wree et al., Hepatology, 2014, 59(3), 898-910; Alex Baldwin et al., Journal of Medicinal Chemistry, 2016, 59(5), 1691-1710; Ema Ozaki et al., Journal of Inflammation Research, 2015, 8, 15-27; Zhen Xie & Gang Zhao, Neuroimmunology Neuroinflammation, 2014, 1(2), 60-65; Mattia Cocco et al., Journal of Medicinal Chemistry, 2014, 57(24), 10366-10382; T. Satoh et al., Cell Death & Disease, 2013, 4, e644). Therefore, it is anticipated that inhibitors of NLRP3 will block pyroptosis, as well as the release of pro-inflammatory cytokines (e.g. IL-1β) from the cell.
THP-1 cells (ATCC #TIB-202) were grown in RPMI containing L-glutamine (Gibco #11835) supplemented with 1 mM sodium pyruvate (Sigma #S8636) and penicillin (100 units/ml)/streptomycin (0.1 mg/ml) (Sigma #P4333) in 10% Fetal Bovine Serum (FBS) (Sigma #F0804). The cells were routinely passaged and grown to confluency (˜10^6 cells/ml). On the day of the experiment, THP-1 cells were harvested and resuspended into RPMI medium (without FBS). The cells were then counted and viability (>90%) checked by Trypan blue (Sigma #T8154). Appropriate dilutions were made to give a concentration of 625,000 cells/ml. To this diluted cell solution was added LPS (Sigma #L4524) to give a 1 μg/ml Final Assay Concentration (FAC). 40 μl of the final preparation was aliquoted into each well of a 96-well plate. The plate thus prepared was used for compound screening.
The following method step-by-step assay was followed for compound screening. • 1. Seed THP-1 cells (25,000 cells/well) containing 1.0 μg/ml LPS in 40 μl of RPMI medium (without FBS) in 96-well, black walled, clear bottom cell culture plates coated with poly-D-lysine (VWR #734-0317) • 2. Add […] compound (8 points half-log dilution, with 10 μM top dose) or vehicle (DMSO 0.1% FAC) to the appropriate wells • 3. Incubate for 3 hrs at 37° C. in 5% CO2 • 4. Add 5 μl nigericin (Sigma #N7143) (FAC 5 μM) to all wells • 5. Incubate for 1 hr at 37° C. and 5% CO2 • 6. At the end of the incubation period, spin plates at 300×g for 3 mins and remove supernatant • 7. Then add 50 μl of resazurin (Sigma #R7017) (FAC 100 μM resazurin in RPMI medium without FBS) and incubate plates for a further 1-2 hrs at 37° C. and 5% CO2 • 8. Plates were read in an Envision reader at Ex 560 nm and Em 590 nm • 9. IC50 data is fitted to a non-linear regression equation (log inhibitor vs response-variable slope 4-parameters)

Sequence of NLRP3 (Q96P20 whole entry): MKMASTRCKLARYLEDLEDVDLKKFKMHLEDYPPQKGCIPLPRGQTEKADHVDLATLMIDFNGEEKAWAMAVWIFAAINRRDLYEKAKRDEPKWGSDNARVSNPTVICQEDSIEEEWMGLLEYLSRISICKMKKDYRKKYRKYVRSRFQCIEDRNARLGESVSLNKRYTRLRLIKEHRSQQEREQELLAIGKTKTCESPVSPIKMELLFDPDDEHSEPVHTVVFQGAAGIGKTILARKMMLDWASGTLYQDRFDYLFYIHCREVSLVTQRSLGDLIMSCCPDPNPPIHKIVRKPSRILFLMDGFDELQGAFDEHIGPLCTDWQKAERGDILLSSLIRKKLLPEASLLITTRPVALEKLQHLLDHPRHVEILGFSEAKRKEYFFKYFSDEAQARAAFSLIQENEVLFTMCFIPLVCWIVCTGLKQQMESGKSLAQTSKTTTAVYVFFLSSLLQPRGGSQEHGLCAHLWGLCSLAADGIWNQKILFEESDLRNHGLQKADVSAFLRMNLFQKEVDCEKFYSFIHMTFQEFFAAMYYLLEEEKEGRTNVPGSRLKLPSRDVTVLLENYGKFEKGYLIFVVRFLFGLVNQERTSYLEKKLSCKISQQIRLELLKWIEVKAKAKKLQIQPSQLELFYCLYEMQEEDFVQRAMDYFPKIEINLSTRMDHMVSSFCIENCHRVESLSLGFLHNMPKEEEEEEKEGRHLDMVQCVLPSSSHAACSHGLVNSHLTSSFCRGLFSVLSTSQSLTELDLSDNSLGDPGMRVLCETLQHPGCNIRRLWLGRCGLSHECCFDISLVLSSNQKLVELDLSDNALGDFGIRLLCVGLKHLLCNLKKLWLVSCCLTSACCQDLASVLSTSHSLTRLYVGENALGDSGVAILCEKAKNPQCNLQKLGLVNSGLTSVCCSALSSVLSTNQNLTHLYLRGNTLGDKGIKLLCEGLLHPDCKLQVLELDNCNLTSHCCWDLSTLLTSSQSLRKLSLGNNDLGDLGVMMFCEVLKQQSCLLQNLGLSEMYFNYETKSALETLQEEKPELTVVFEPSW

IC50 [nM] | SMILES
2560 to 10000 | CN(C(=O)c1cc(S(=O)(=O)NC(=O)Nc2c3c(cc4c2CCC4)CCC3)nn1C)C1CCOCC1 [Example 14, 3-(N-((1,2,3,5,6,7-Hexahydro-s-indacen-4-yl)carbamoyl)sulfamoyl)-N,1-dimethyl-N-(tetrahydro-2H-pyran-4-yl)-1H-pyrazole-5-carboxamide]
160 to 640 | CN(CCC#N)C(=O)c1cc(S(=O)(=O)NC(=O)Nc2c3c(cc4c2CCC4)CCC3)nn1C [Example 9, N-(2-Cyanoethyl)-3-(N-((1,2,3,5,6,7-hexahydro-s-indacen-4-yl)carbamoyl)sulfamoyl)-N,1-dimethyl-1H-pyrazole-5-carboxamide]
2560 to 10000 | CC(=O)N1CCC(n2ccc(S(=O)(=O)NC(=O)Nc3c4c(cc5c3CCC5)CCC4)n2)CC1 [Example 5, 1-(1-Acetylpiperidin-4-yl)-N-((1,2,3,5,6,7-hexahydro-s-indacen-4-yl)carbamoyl)-1H-pyrazole-3-sulfonamide]
640 to 2560 | Cn1nc(S(=O)(=O)NC(=O)Nc2c3c(cc4c2CCC4)CCC3)cc1C(=O)N1CCCC1 [Example 59, N-((1,2,3,5,6,7-Hexahydro-s-indacen-4-yl)carbamoyl)-1-methyl-5-(pyrrolidine-1-carbonyl)-1H-pyrazole-3-sulfonamide]
640 to 2560 | CC(C)c1cccc(C(C)C)c1NC(=O)NS(=O)(=O)c1cc(C(=O)N2CCOCC2)n(C)n1 [Example 21, N-((2,6-Diisopropylphenyl)carbamoyl)-1-methyl-5-(morpholine-4-carbonyl)-1H-pyrazole-3-sulfonamide]
160 to 640 | CC(C)c1cc(F)cc(C(C)C)c1NC(=O)NS(=O)(=O)c1cc(C(=O)N2CCC2)n(C(C)C)n1 [Example 30, 5-(Azetidine-1-carbonyl)-N-((4-fluoro-2,6-diisopropylphenyl)carbamoyl)-1-isopropyl-1H-pyrazole-3-sulfonamide]
640 to 2560 | CC(C)c1cccc(C(C)C)c1NC(=O)NS(=O)(=O)c1cc(C(=O)N2CCCC2)n(C)n1 [Example 63, N-((2,6-Diisopropylphenyl)carbamoyl)-1-methyl-5-(pyrrolidine-1-carbonyl)-1H-pyrazole-3-sulfonamide]
640 to 2560 | CN(C(=O)c1cc(S(=O)(=O)NC(=O)Nc2c3c(cc4c2CCC4)CCC3)nn1C)C1CCCC1 [Example 11, N-Cyclopentyl-3-(N-((1,2,3,5,6,7-hexahydro-s-indacen-4-yl)carbamoyl)sulfamoyl)-N,1-dimethyl-1H-pyrazole-5-carboxamide]
640 to 2560 | Cn1nc(S(=O)(=O)NC(=O)Nc2c3c(cc4c2CCC4)CCC3)cc1C(=O)N1CCOCC1 [Example 28, N-((1,2,3,5,6,7-Hexahydro-s-indacen-4-yl)carbamoyl)-1-methyl-5-(morpholine-4-carbonyl)-1H-pyrazole-3-sulfonamide]
640 to 2560 | CC(C)c1cccc(C(C)C)c1NC(=O)NS(=O)(=O)c1cc(C(=O)N(C)C2CCC2)n(C)n1 [Example 8, N-Cyclobutyl-3-(N-((2,6-diisopropylphenyl)carbamoyl)sulfamoyl)-N,1-dimethyl-1H-pyrazole-5-carboxamide]
640 to 2560 | CC(C)c1ccc(-c2cncnc2)cc1NC(=O)NS(=O)(=O)c1cc(C(=O)N(C)C)n(C)n1 [Example 34, 3-(N-((2-Isopropyl-5-(pyrimidin-5-yl)phenyl)carbamoyl)sulfamoyl)-N,N,1-trimethyl-1H-pyrazole-5-carboxamide]
160 to 640 | CCN(CC)C(=O)c1cc(S(=O)(=O)NC(=O)Nc2c(C(C)C)cc(F)cc2C(C)C)nn1C [Example 48, N,N-Diethyl-3-(N-((4-fluoro-2,6-diisopropylphenyl)carbamoyl)sulfamoyl)-1-methyl-1H-pyrazole-5-carboxamide]
2560 to 10000 | CC(=O)NCCN(C)C(=O)c1cc(S(=O)(=O)NC(=O)Nc2c3c(cc4c2CCC4)CCC3)nn1C [Example 13, N-(2-Acetamidoethyl)-3-(N-((1,2,3,5,6,7-hexahydro-s-indacen-4-yl)carbamoyl)sulfamoyl)-N,1-dimethyl-1H-pyrazole-5-carboxamide]
640 to 2560 | CC(C)c1cccc(C(C)C)c1NC(=O)NS(=O)(=O)c1cc(C(=O)N(C)CCO)n(C)n1 [Example 75, 3-(N-((2,6-Diisopropylphenyl)carbamoyl)sulfamoyl)-N-(2-hydroxyethyl)-N,1-dimethyl-1H-pyrazole-5-carboxamide]
640 to 2560 | CN(CC(O)CO)C(=O)c1cc(S(=O)(=O)NC(=O)Nc2c3c(cc4c2CCC4)CCC3)nn1C (centres unmarked) [Example 19, N-(2,3-Dihydroxypropyl)-3-(N-((1,2,3,5,6,7-hexahydro-s-indacen-4-yl)carbamoyl)sulfamoyl)-N,1-dimethyl-1H-pyrazole-5-carboxamide]
2560 to 10000 | Cn1nc(S(=O)(=O)NC(=O)Nc2c3c(cc4c2CCC4)CCC3)cc1C(=O)NCCO [Example 76, 3-(N-((1,2,3,5,6,7-Hexahydro-s-indacen-4-yl)carbamoyl)sulfamoyl)-N-(2-hydroxyethyl)-1-methyl-1H-pyrazole-5-carboxamide]
640 to 2560 | CC(C)c1ccc(-c2cnn(C)c2)cc1NC(=O)NS(=O)(=O)c1cc(C(=O)N(C)C)n(C)n1 [Example 36, 3-(N-((2-Isopropyl-5-(1-methyl-1H-pyrazol-4-yl)phenyl)carbamoyl)sulfamoyl)-N,N,1-trimethyl-1H-pyrazole-5-carboxamide]
2560 to 10000 | CC(C)NC(=O)c1cc(S(=O)(=O)NC(=O)Nc2c(C(C)C)cccc2C(C)C)nn1C [Example 38, 3-(N-((2,6-Diisopropylphenyl)carbamoyl)sulfamoyl)-N-isopropyl-1-methyl-1H-pyrazole-5-carboxamide]
640 to 2560 | CN(C)CCN(C)C(=O)c1cc(S(=O)(=O)NC(=O)Nc2c3c(cc4c2CCC4)CCC3)nn1C [Example 10, N-(2-(Dimethylamino)ethyl)-3-(N-((1,2,3,5,6,7-hexahydro-s-indacen-4-yl)carbamoyl)sulfamoyl)-N,1-dimethyl-1H-pyrazole-5-carboxamide]
2560 to 10000 | CN(C)CCCN(C)C(=O)c1cc(S(=O)(=O)NC(=O)Nc2c3c(cc4c2CCC4)CCC3)nn1C [Example 6, N-(3-(Dimethylamino)propyl)-3-(N-((1,2,3,5,6,7-hexahydro-s-indacen-4-yl)carbamoyl)sulfamoyl)-N,1-dimethyl-1H-pyrazole-5-carboxamide]
2560 to 10000 | CC(C)c1cccc(C(C)C)c1NC(=O)NS(=O)(=O)c1cc(C(=O)N(C)CC#N)n(C)n1 [Example 40, N-(Cyanomethyl)-3-(N-((2,6-diisopropylphenyl)carbamoyl)sulfamoyl)-N,1-dimethyl-1H-pyrazole-5-carboxamide]
2560 to 10000 | Cn1nc(S(=O)(=O)NC(=O)Nc2c3c(cc4c2CCC4)CCC3)cc1C(=O)N1CCC(O)CC1 [Example 24, N-((1,2,3,5,6,7-Hexahydro-s-indacen-4-yl)carbamoyl)-5-(4-hydroxypiperidine-1-carbonyl)-1-methyl-1H-pyrazole-3-sulfonamide]
2560 to 10000 | CC(C)NC(=O)c1cc(S(=O)(=O)NC(=O)Nc2c3c(cc4c2CCC4)CCC3)nn1C [Example 46, 3-(N-((1,2,3,5,6,7-Hexahydro-s-indacen-4-yl)carbamoyl)sulfamoyl)-N-isopropyl-1-methyl-1H-pyrazole-5-carboxamide]
640 to 2560 | CNC(=O)c1cc(S(=O)(=O)NC(=O)Nc2c3c(cc4c2CCC4)CCC3)nn1C [Example 66, 3-(N-((1,2,3,5,6,7-Hexahydro-s-indacen-4-yl)carbamoyl)sulfamoyl)-N,1-dimethyl-1H-pyrazole-5-carboxamide]
2560 to 10000 | COCCN(CCOC)C(=O)c1cc(S(=O)(=O)NC(=O)Nc2c(C(C)C)cccc2C(C)C)nn1C [Example 23, 3-(N-((2,6-Diisopropylphenyl)carbamoyl)sulfamoyl)-N,N-bis(2-methoxyethyl)-1-methyl-1H-pyrazole-5-carboxamide]
640 to 2560 | CCN(CC)C(=O)c1cc(S(=O)(=O)NC(=O)Nc2c(C(C)C)cccc2C(C)C)nn1C [Example 57, 3-(N-((2,6-Diisopropylphenyl)carbamoyl)sulfamoyl)-N,N-diethyl-1-methyl-1H-pyrazole-5-carboxamide]

Reference: patent publication US20210122739A1, “NOVEL SULFONAMIDE CARBOXAMIDE COMPOUNDS” (Inflazome Limited, priority 2017, published 2021)
